Source: patent US8293464B2, “Methods for reducing the internalization of viruses and identification of compounds effective thereof” (Universiteit Gent, priority 2008, dated 2012)
Where two headings read alike, the source gives them in different places. Residues, ends and D or L forms follow the SMILES beside them.

Columns and labels:
feline monocytes [1] = test: Internalization assay of control ligands (beads, transferrin or albumin) in monocytes; assay type: cell-based; conditions: for internalization of a control ligand: control ligand not named
Protocol: To test the effectiveness of all reagents, a suitable control was used in each experiment. Monocytes seeded on glass coverslips were pre-incubated for 30 minutes at 37° C. with 5% CO2 in the presence of one of the inhibitors. After treatment, the cells were incubated with biotinylated transferrin (Sigma-Aldrich GmbH) or fluorescent 1 μm polystyrene microspheres, FluoSpheres (Molecular Probes-Invitrogen), in presence of the inhibitor. Then, cells were fixed with 1% formaldehyde and permeabilized with 0.1% Triton X-100. The biotinylated transferrin was visualized by incubating the cells with streptavidin-FITC for 1 hour at 37° C. and cells incubated with fluorescent beads were incubated with phalloidin-Texas Red (Molecular Probes-Invitrogen) for 1 hour at 37° C. to visualize the lamellipodia. The glass coverslips were mounted on microscope slides using glycerin-DABCO and analyzed by confocal microscopy. […] Fluorescent beads were considered internalized when they were found inside the cortical actin labeling.

[2] = system: surface expressed viral antigens in FIPV infected monocytes; test: Internalization inhibition assay of surface expressed viral antigens (antigen-antibody complexes); assay type: cell-based, feline; conditions: each inhibitor at its working concentration; for internalization of viral antigens: 30 min pre-incubation, 30 min with antibodies
PRRSV in MARC cells = test: Plaque reduction assay, entry of PRRSV in MARC cells; assay type: cell-based, Porcine reproductive and respiratory syndrome virus
[3] = system: PRRSV in alveolar macrophage; assay type: cell-based, Porcine reproductive and respiratory syndrome virus
[4] = system: Porcine respiratory coronavirus (PRCV) in ST cells; test: Plaque reduction assay, entry of porcine respiratory coronavirus in ST cells; assay type: cell-based
[5] = system: swine influenzavirus in MDCK cells; assay type: cell-based
[6] = system: PrV infected porcine monocytes; test: Antibody-induced internalization of PrV viral proteins in porcine monocytes; assay type: cell-based; conditions: 10 μM
EHV (EEL cells) = test: Plaque reduction assay, entry of equine herpesvirus in EEL cells; assay type: cell-based
protein kinase A = conditions: 50 and 100 μM; cited from earlier work
protein kinase C = conditions: 50 and 100 μM; cited from earlier work
HSV1 (VERO cells) = test: Plaque reduction assay, entry of HSV1 in VERO cells; assay type: cell-based, human herpes simplex virus 1
FeHV (CrFK cells) = test: Plaque reduction assay, entry of feline herpesvirus in CrFK cells; assay type: cell-based
FIPV Black (fcwf cells) = test: Plaque reduction assay, entry of FIPV Black in fcwf cells; assay type: cell-based, feline infectious peritonitis virus; conditions: FIPV strain Black
hepatitis C virus (HCV) = test: Single infected cell reduction assay, entry of HCV in Huh7.5 hepatoma cells; assay type: cell-based, human hepatitis C virus; conditions: 25 μM; Huh7.5 cells
Protocol: The single infected cell reduction assay was used to determine the antiviral potency of to ML-7 on the entry of hepatitis C virus (HCV). • 1. Day 1
Huh7.5 hepatoma cells were seeded in a 96-well plate at 10000 cells/well in 100 μl medium containing 0, 2.5 or 25 μM of ML-7. • 2. Day 2
Virus was diluted in medium containing the different concentrations of the inhibitor to reach an end concentration of 2,22.10^6 IU/ml. 100 μl of this mixture was added to the wells and the plate was further incubated at 37° C. • 3. Day 6
The cells were fixed and stained for NS5A (a HCV protein). Then the amount of HCV-positive clusters per well was counted. A cluster is defined as a group of positive cells that is separated from another cluster by at least 1 non-infected cell.

FIPV 1146 (CrFK cells) = test: Plaque reduction assay, entry of FIPV 1146 in CrFK cells; assay type: cell-based, feline infectious peritonitis virus
HIV-1 NL4.3-eGFP = assay type: cell-based, Human Immunodeficiency Virus 1
Protocol: In this experiment the Human Immunodeficiency Virus 1 (HIV-1) strain HIV-1 NL4.3-eGFP which is a lab strain with an eGFP reporter, was used to infect the human T-cell lymphoblatic lymphoma cell line SupT1. The percentage of eGFP positive cells measured at different time point was used as endpoint read out SupT1. ML-7 inhibitor was used at three different concentration: 0 (DMSO), 2,5 and 25 μM.
SupT1 cells were at a concentration of 20000 cell/well in 200 μl of iMDM medium supplemented with 10% FCS, 1% penicillin/streptomycin and 1% L-glutamine, and were centrifuged at 300 g for 5 min at 4° C. Supernatant was removed and the cells were treated for 30 min with 100 μl of 0 (DMSO at 1/200 dilution in culture medium), 5 and 50 μM ML-7 inhibitor prepared in culture medium at 1/2000 and 1/200 dilution respectively. Meanwhile, HIV-1 NL4.3-eGFP virus was diluted in 10 fold dilution series in a separate plate (starting from 1/5 of stock, put on first well). 100 μl of each virus at every dilution was transferred to the corresponding well of the culture plate treated with the inhibitor. Four hours later approximately 100 μl was transferred to an
Cells were centrifuged at 300 g for 5 min at 4° C. and approximately 100 μl was collected then stored at −80° C. for p24 measurement. Then 100 μl of cells infected with HIV1-NL4.3-eGFP virus was collected for the determination of the percentage of eGFP positive cells by FACS. Cells were resuspended in 200 μl of medium containing the adequate ML-7 inhibitor concentration. • 3. Day 7
Cells were treated in the same way as in day 3
During the course of the experiment cells were monitored carefully by microscopy to check for signs of infection such as: • eGFP expression • Syncytia formation • Cell death Results

FECV 1863 (CrFK cells) = test: Plaque reduction assay, entry of FECV 1863 in CrFK cells; assay type: cell-based, feline enteric coronavirus
feline monocytes [7] = test: Internalization assay of control ligands (beads, transferrin or albumin) in monocytes; assay type: cell-based; conditions: 50 μg/ml genistein
[8] = inhibitor at working concentration
[9] = feline coronaviruses, FIG. 4, 50 and 100 μM
[10] = feline coronaviruses, FIG. 4, higher concentrations
[11] = Day 3, 2.5 μM, virus dilution 10X
[12] = Day 3, 2.5 μM, virus dilution 100X
[13] = Day 3, 2.5 μM, virus dilution 1000X
[14] = Day 3, 25 μM, virus dilution 10X
[15] = Day 3, 25 μM, virus dilution 100X
[16] = Day 3, 25 μM, virus dilution 1000X
[17] = Day 7, 2.5 μM, virus dilution 10X
[18] = Day 7, 2.5 μM, virus dilution 100X
[19] = Day 7, 2.5 μM, virus dilution 1000X, at or below detection limit
[20] = Day 7, 25 μM, virus dilution 10X
[21] = Day 7, 25 μM, virus dilution 100X
[22] = Day 7, 25 μM, virus dilution 1000X, at or below detection limit

## O=S(=O)(NCCNC/C=C/c1ccc(Br)cc1)c1cccc2cnccc12 [H-89]
Feline monocytes [1]; [8]
  internalization of a control ligand: 33±29%
[2]
  internalization of viral antigens (in words): unaffected

## COC(=O)[C@@]1(O)C[C@H]2O[C@]1(C)n1c3ccccc3c3c4c(c5c6ccccc6n2c5c31)C(=O)NC4 [K252a, K-252a]
Feline monocytes [1]; 150 nM K-252a
  internalization of the control ligand (beads), in words: inhibited
[2]
  internalization of viral antigens (in words): inhibited

## COc1ccc(S(=O)(=O)N(CCO)c2ccccc2CN(C)C/C=C/c2ccc(Cl)cc2)cc1 [KN-93]
Feline monocytes [1]; [8]
  internalization of a control ligand: 23±16%
[2]
  internalization of viral antigens (in words): unaffected

## O=S(=O)(c1cccc2c(I)cccc12)N1CCCNCC1 [ML-7]
PRRSV in MARC cells
  effect on entry: activating effect instead of an inhibiting effect
[3]; 0,78 μM
  number of plaques, % of the control: 68 % of the control
[3]; higher concentrations
  further reduction at the higher concentrations: no further reduction
Feline monocytes [1]; [8]
  internalization of the control ligand beads: 11±5 % of untreated control
[4]; 50 μM
  number of plaques, % of the untreated control: about 40 % of the untreated control
[4]; 1,56 μM
  entry (plaque formation), % of the untreated control: 68 % of the untreated control
[4]; higher concentrations (up to 6 μM)
  inhibitory effect at higher concentrations: inhibitory effect is lost again
[5]; 3,13 μM
  number of plaques, % of the control: 76 % of the control
[5]; higher concentrations
  further reduction at the higher concentrations: no further reduction
[2]
  internalization of viral antigens: 12±21 % of untreated control
[6]
  antibody-induced internalization of PrV viral proteins: can be inhibited
EHV (EEL cells); 100 μM
  additional effect at high concentration: additional inhibitory effect
EHV (EEL cells); 1,56 μM
  plaques, % of the untreated control: 86 % of the untreated control
Protein kinase A
  block of protein kinase A: can also block
Protein kinase C
  block of protein kinase C: can also block
HSV1 (VERO cells); 1,56 μM
  plaques, % of the untreated control: 81 % of the untreated control
HSV1 (VERO cells); 25 and 100 μM
  additional effect at high concentration: additional effect
FeHV (CrFK cells); 100 μM
  additional effect at high concentration: additional inhibitory effect
FeHV (CrFK cells); 1,56 μM
  plaques, % of the untreated control: 79 % of the untreated control
FIPV Black (fcwf cells)
  effect on the entry process: little effect
Hepatitis C virus (HCV)
  amount of infected clusters, % of the untreated control: 31 % of the untreated control
FIPV 1146 (CrFK cells); FIPV on CrFK cells, 3,13 μM
  reduction of entry, % of the control: 88 % of the control
FIPV 1146 (CrFK cells); [9]
  inhibitory effect on entry at the highest concentrations: inhibitory effect increased rapidly
FIPV 1146 (CrFK cells); [10]
  inhibitory effect on entry at higher concentrations: inhibitory effect seemed to be lost again
HIV-1 NL4.3-eGFP; 25 μM
  protection from virus mediated cell death: protected
HIV-1 NL4.3-eGFP; [11]
  Percentage of eGFP cells: 2.98%
  eGFP cells relative to 0 μM ML-7 (100%): (80%)
HIV-1 NL4.3-eGFP; [12]
  Percentage of eGFP cells: 0.18%
  eGFP cells relative to 0 μM ML-7 (100%): (46%)
HIV-1 NL4.3-eGFP; [13]
  Percentage of eGFP cells: 0.04%
  eGFP cells relative to 0 μM ML-7 (100%): (36%)
HIV-1 NL4.3-eGFP; [14]
  Percentage of eGFP cells: 1.52%
  eGFP cells relative to 0 μM ML-7 (100%): (41%)
HIV-1 NL4.3-eGFP; [15]
  Percentage of eGFP cells: 0.19%
  eGFP cells relative to 0 μM ML-7 (100%): (49%)
HIV-1 NL4.3-eGFP; [16]
  Percentage of eGFP cells: 0.06%
  eGFP cells relative to 0 μM ML-7 (100%): (54%)
HIV-1 NL4.3-eGFP; [17]
  Percentage of eGFP cells: 35.8%
  eGFP cells relative to 0 μM ML-7 (100%): (92%)
HIV-1 NL4.3-eGFP; [18]
  Percentage of eGFP cells: 18.64%
  eGFP cells relative to 0 μM ML-7 (100%): (44%)
HIV-1 NL4.3-eGFP; [19]
  Percentage of eGFP cells: 0.95%
  eGFP cells relative to 0 μM ML-7 (100%): (3160%)°
HIV-1 NL4.3-eGFP; [20]
  Percentage of eGFP cells: 1.13%
  eGFP cells relative to 0 μM ML-7 (100%): (3%)
HIV-1 NL4.3-eGFP; [21]
  Percentage of eGFP cells: 0.14%
  eGFP cells relative to 0 μM ML-7 (100%): (0.3%)
HIV-1 NL4.3-eGFP; [22]
  Percentage of eGFP cells: 0.06%
  eGFP cells relative to 0 μM ML-7 (100%): (200%)
HIV-1 NL4.3-eGFP; SupT1 cells
  inhibition of HIV-1 NL4.3-eGFP infection: strong inhibition
  toxic effect on cells: No toxic effect
HIV-1 NL4.3-eGFP; high concentration, data not shown
  virus induced syncytia: inhibited completely
HIV-1 NL4.3-eGFP; intermediate inhibitor concentration
  protection from virus mediated cell death: mild
FECV 1863 (CrFK cells); FECV on CrFK cells, 1,56 μM
  reduction of entry, % of the control: 73%
FECV 1863 (CrFK cells); [9]
  inhibitory effect on entry at the highest concentrations: inhibitory effect increased rapidly
FECV 1863 (CrFK cells); [10]
  inhibitory effect on entry at higher concentrations: inhibitory effect seemed to be lost again

## CC(NC(=O)C(CCCN=C(N)N)NC(=O)C(CCCCN)NC(=O)C(N)CCCN=C(N)N)C(=O)NC(CCCN=C(N)N)C(=O)NC(CCCCN)C(=O)NC(CCC(=O)O)C(=O)O (centres unmarked) [PKG-inhibitor] (H-RKRARKE-OH; configuration not given here)
Feline monocytes [1]; [8]
  internalization of a control ligand: 14±7%
[2]
  internalization of viral antigens (in words): unaffected

## CN(C)CCCn1cc(C2=C(c3c[nH]c4ccccc34)C(=O)NC2=O)c2ccccc21 [bisindolylmaleimide I]
Feline monocytes [1]; [8]
  internalization of a control ligand: 25±13%
[2]
  internalization of viral antigens (in words): unaffected

## CN(N=O)c1cc(O)ccc1O [dephostatin]
Feline monocytes [1]; [8]
  internalization of the control ligand beads: 2±3 % of untreated control
[2]
  internalization of viral antigens: 96±23 % of untreated control

## O=c1c(-c2ccc(O)cc2)coc2cc(O)cc(O)c12 [genistein]
Feline monocytes [7]
  internalization of the control ligand albumin: 3±5 % of the untreated control
[2]
  internalization of viral antigens: 81±4 % of untreated control

## [F-].[Na+] [sodium fluoride]
Feline monocytes [1]; [8]
  internalization of the control ligand transferrin: 46±6 % of the untreated control
[2]
  internalization of viral antigens (in words): no reduction

## CN[C@@H]1C[C@H]2O[C@@](C)([C@@H]1OC)n1c3ccccc3c3c4c(c5c6ccccc6n2c5c31)C(=O)NC4 [staurosporine]
Feline monocytes [1]; [8]
  internalization of the control ligand beads: 23±4 % of untreated control
[2]
  internalization of viral antigens: 21±2 % of untreated control
